Laboratory results: patent publication US9708314B2, “Heterocyclic amide compound” (NISSAN CHEMICAL INDUSTRIES, LTD., priority 2013, dated 2017)

What was measured:
Type in all cases: in vivo
[1] = tested on: Echinochloa oryzacola Vasing.; assay: Test Example 2: herbicidal activity, application during weed generation in submerged conditions; details: Eighteenth Table; application herbicide amount 320 g/ha
Outline: (§1)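 Post-emergence application under submerged conditions: water-diluted emulsion dosed onto the water surface (g/ha) when weeds reach one- to two-leaf stage. Soil flooded to 4 cm; greenhouse 25–30 °C. Herbicidal ratio graded in six classes, 0 (≤5%) to 5 (≥90%), at three weeks.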

Scirpus juncoides = assay: as above; details: Eighteenth Table; application herbicide amount 320 g/ha
Outline: as §1

Monochoria vaginalis = assay: as above; details: Eighteenth Table; application herbicide amount 320 g/ha
Outline: as §1

[2] = tested on: Echinochloa crus-galli var. crus-galli; assay: Test Example 4: herbicidal effect by application to foliage (diluvial soil, plastic box); details: for H (Echinochloa crus-galli var. crus-galli) herbicidal effect grade: foliage application
Outline: (§2)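 Emulsion-formulated compound, diluted to a predetermined g/ha dose, applied by small sprayer to leaves and stems of 14-day-old seedlings grown in sterilized diluvial soil. Effect rated on 0–5 herbicidal-ratio scale three weeks on.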

Chenopodium album = assay: as above; details: for O (Chenopodium album) herbicidal effect grade: foliage application
Outline: as §2

Veronica persica = assay: as above; details: for R (Veronica persica) herbicidal effect grade: foliage application
Outline: as §2

Amaranthus retroflexus = assay: as above; details: for N (Amaranthus retroflexus) herbicidal effect grade: foliage application
Outline: as §2

Abutilon theophrasti = assay: as above; details: for M (Abutilon theophrasti) herbicidal effect grade: foliage application
Outline: as §2

Alopecurus myosuroides = assay: as above; details: for J (Alopecurus myosuroides) herbicidal effect grade: foliage application
Outline: as §2

Apera spica-venti. = assay: as above; details: for L (Apera spica-venti.) herbicidal effect grade: foliage application
Outline: as §2

Digitaria ciliaris = assay: as above; details: for F (Digitaria ciliaris) herbicidal effect grade: foliage application
Outline: as §2

Stellaria media = assay: as above; details: for P (Stellaria media) herbicidal effect grade: foliage application
Outline: as §2

Avena fatua = assay: as above; details: for I (Avena fatua) herbicidal effect grade: foliage application
Outline: as §2

Lolium multiflorum Lam. = assay: as above; details: for K (Lolium multiflorum Lam.) herbicidal effect grade: foliage application
Outline: as §2

Setaria viridis = assay: as above; details: for G (Setaria viridis) herbicidal effect grade: foliage application
Outline: as §2

[3] = application to foliage, application herbicide amount 320 g/ha
[4] = application to foliage, 320 g/ha

Row | SMILES | A (Echinochloa oryzicola Vasing.) herbicidal ratio grade [1] | B (Scirpus juncoides) herbicidal ratio grade (Scirpus juncoides) | C (Monochoria vaginalis) herbicidal ratio grade (Monochoria vaginalis) | H (Echinochloa crus-galli var. crus-galli) herbicidal effect grade ([2]; 320 g/ha) | O (Chenopodium album) herbicidal effect grade (Chenopodium album; 320 g/ha) | R (Veronica persica) herbicidal effect grade (Veronica persica; 320 g/ha) | N (Amaranthus retroflexus) herbicidal effect grade (Amaranthus retroflexus; 320 g/ha) | M (Abutilon theophrasti) herbicidal effect grade (Abutilon theophrasti; 320 g/ha) | J (Alopecurus myosuroides) herbicidal effect grade (Alopecurus myosuroides; 320 g/ha) | L (Apera spica-venti.) herbicidal effect grade (Apera spica-venti.; 320 g/ha) | F (Digitaria ciliaris) herbicidal effect grade (Digitaria ciliaris; 320 g/ha) | P (Stellaria media) herbicidal effect grade (Stellaria media; 320 g/ha) | I (Avena fatua) herbicidal effect grade (Avena fatua; 320 g/ha) | K (Lolium multiflorum Lam.) herbicidal effect grade (Lolium multiflorum Lam.; 320 g/ha) | G (Setaria viridis) herbicidal effect grade (Setaria viridis; 320 g/ha) | other results
1 | COc1cccc(-c2nnc3c(C(=O)Nc4nnnn4C)ccc(C(F)(F)F)n23)c1 [2-044] | 5 (Herbicidal ratio of 90% or more (almost completely withered)) | 4 (Herbicidal ratio of 70% or more and less than 90%) | 4 (Herbicidal ratio of 70% or more and less than 90%) | 5 (Herbicidal ratio of 90% or more (almost completely withered)) | 5 (Herbicidal ratio of 90% or more (almost completely withered)) | 5 (Herbicidal ratio of 90% or more (almost completely withered)) | 5 (Herbicidal ratio of 90% or more (almost completely withered)) | 5 (Herbicidal ratio of 90% or more (almost completely withered)) | 2 (Herbicidal ratio of 20% or more and less than 40%) | 3 (Herbicidal ratio of 40% or more and less than 70%) | 5 (Herbicidal ratio of 90% or more (almost completely withered)) | 4 (Herbicidal ratio of 70% or more and less than 90%) | 2 (Herbicidal ratio of 20% or more and less than 40%) | 2 (Herbicidal ratio of 20% or more and less than 40%) | 4 (Herbicidal ratio of 70% or more and less than 90%) | –
2 | Cn1nnnc1NC(=O)c1ccc(C(F)(F)F)n2cnnc12 [2-001] | 2 (Herbicidal ratio of 20% or more and less than 40%) | 2 (Herbicidal ratio of 20% or more and less than 40%) | 3 (Herbicidal ratio of 40% or more and less than 70%) | – | – | – | – | – | – | – | – | – | – | – | – | H: herbicidal effect on Echinochloa crus-galli var. crus-galli [2, 3]: 4 (Herbicidal ratio of 70% or more and less than 90%); O: herbicidal effect on Chenopodium album (Chenopodium album; [3]): 5 (Herbicidal ratio of 90% or more (almost completely withered)); R: herbicidal effect on Veronica persica (Veronica persica; [3]): 5 (Herbicidal ratio of 90% or more (almost completely withered)); N: herbicidal effect on Amaranthus retroflexus (Amaranthus retroflexus; [3]): 5 (Herbicidal ratio of 90% or more (almost completely withered)); M: herbicidal effect on Abutilon theophrasti (Abutilon theophrasti; [3]): 5 (Herbicidal ratio of 90% or more (almost completely withered)); J: herbicidal effect on Alopecurus myosuroides (Alopecurus myosuroides; [3]): 0 (Herbicidal ratio of 5% or less (almost no effect)); L: herbicidal effect on Apera spica-venti. (Apera spica-venti.; [3]): 0 (Herbicidal ratio of 5% or less (almost no effect)); F: herbicidal effect on Digitaria ciliaris (Digitaria ciliaris; [3]): 3 (Herbicidal ratio of 40% or more and less than 70%); P: herbicidal effect on Stellaria media (Stellaria media; [3]): 5 (Herbicidal ratio of 90% or more (almost completely withered)); I: herbicidal effect on Avena fatua (Avena fatua; [3]): 1 (Herbicidal ratio of 5% or more and less than 20%); K: herbicidal effect on Lolium multiflorum Lam. (Lolium multiflorum Lam.; [3]): 1 (Herbicidal ratio of 5% or more and less than 20%); G: herbicidal effect on Setaria viridis (Setaria viridis; [3]): 0 (Herbicidal ratio of 5% or less (almost no effect))
3 | COCCn1nnnc1NC(=O)c1ccc(C(F)(F)F)n2c(C(C)C)nnc12 [2-041] | 5 (Herbicidal ratio of 90% or more (almost completely withered)) | 4 (Herbicidal ratio of 70% or more and less than 90%) | 3 (Herbicidal ratio of 40% or more and less than 70%) | 5 (Herbicidal ratio of 90% or more (almost completely withered)) | 5 (Herbicidal ratio of 90% or more (almost completely withered)) | 4 (Herbicidal ratio of 70% or more and less than 90%) | 4 (Herbicidal ratio of 70% or more and less than 90%) | 5 (Herbicidal ratio of 90% or more (almost completely withered)) | 3 (Herbicidal ratio of 40% or more and less than 70%) | 4 (Herbicidal ratio of 70% or more and less than 90%) | 4 (Herbicidal ratio of 70% or more and less than 90%) | 5 (Herbicidal ratio of 90% or more (almost completely withered)) | 3 (Herbicidal ratio of 40% or more and less than 70%) | 3 (Herbicidal ratio of 40% or more and less than 70%) | 3 (Herbicidal ratio of 40% or more and less than 70%) | –
4 | CCCS(=O)(=O)c1nnc2c(C(=O)Nc3nnnn3C)ccc(C(F)(F)F)n12 [2-070] | 5 (Herbicidal ratio of 90% or more (almost completely withered)) | 5 (Herbicidal ratio of 90% or more (almost completely withered)) | 5 (Herbicidal ratio of 90% or more (almost completely withered)) | 5 (Herbicidal ratio of 90% or more (almost completely withered)) | 5 (Herbicidal ratio of 90% or more (almost completely withered)) | 5 (Herbicidal ratio of 90% or more (almost completely withered)) | 5 (Herbicidal ratio of 90% or more (almost completely withered)) | 4 (Herbicidal ratio of 70% or more and less than 90%) | 4 (Herbicidal ratio of 70% or more and less than 90%) | 4 (Herbicidal ratio of 70% or more and less than 90%) | 5 (Herbicidal ratio of 90% or more (almost completely withered)) | 5 (Herbicidal ratio of 90% or more (almost completely withered)) | 5 (Herbicidal ratio of 90% or more (almost completely withered)) | 4 (Herbicidal ratio of 70% or more and less than 90%) | 5 (Herbicidal ratio of 90% or more (almost completely withered)) | –
5 | CC(=O)OCc1nnc2c(C(=O)Nc3nnnn3C)ccc(C(F)(F)F)n12 [2-107] | 2 (Herbicidal ratio of 20% or more and less than 40%) | 1 (Herbicidal ratio of 5% or more and less than 20%) | 2 (Herbicidal ratio of 20% or more and less than 40%) | – | – | – | – | – | – | – | – | – | – | – | – | herbicidal effect, H (Echinochloa crus-galli var. crus-galli) [2, 4]: 5 (Herbicidal ratio of 90% or more (almost completely withered)); herbicidal effect, O (Chenopodium album) (Chenopodium album; [4]): 5 (Herbicidal ratio of 90% or more (almost completely withered)); herbicidal effect, R (Veronica persica) (Veronica persica; [4]): 5 (Herbicidal ratio of 90% or more (almost completely withered)); herbicidal effect, N (Amaranthus retroflexus) (Amaranthus retroflexus; [4]): 5 (Herbicidal ratio of 90% or more (almost completely withered)); herbicidal effect, M (Abutilon theophrasti) (Abutilon theophrasti; [4]): 5 (Herbicidal ratio of 90% or more (almost completely withered)); herbicidal effect, J (Alopecurus myosuroides) (Alopecurus myosuroides; [4]): 0 (Herbicidal ratio of 5% or less (almost no effect)); herbicidal effect, L (Apera spica-venti.) (Apera spica-venti.; [4]): 0 (Herbicidal ratio of 5% or less (almost no effect)); herbicidal effect, F (Digitaria ciliaris) (Digitaria ciliaris; [4]): 5 (Herbicidal ratio of 90% or more (almost completely withered)); herbicidal effect, P (Stellaria media) (Stellaria media; [4]): 5 (Herbicidal ratio of 90% or more (almost completely withered)); herbicidal effect, I (Avena fatua) (Avena fatua; [4]): 1 (Herbicidal ratio of 5% or more and less than 20%); herbicidal effect, K (Lolium multiflorum Lam.) (Lolium multiflorum Lam.; [4]): 0 (Herbicidal ratio of 5% or less (almost no effect)); herbicidal effect, G (Setaria viridis) (Setaria viridis; [4]): 3 (Herbicidal ratio of 40% or more and less than 70%)
